Test results as given in patent publication US20230028441A1, “NOVEL HETEROARYL-TRIAZOLE COMPOUNDS AS PESTICIDES” (Bayer Aktiengesellschaft, priority 2019, published 2023).

Key:
Type in all cases: in vivo
[1] = test system: green peach aphid (Myzus persicae); test: Myzus persicae spray test; conditions: foliar, 120 h, after 5 days, Chinese cabbage leaf disks
Description: Solvent: 78.0 parts by weight acetone • 1.5 parts by weight dimethylformamide
(§1) Emulsifier: alkylarylpolyglycol ether
(§2) To produce a suitable preparation of active compound, 1 part by weight of active compound is mixed with the stated amount of solvents and is diluted with water, containing an emulsifier concentration of 1000 ppm, to the desired concentration. Further test concentrations are prepared by dilution with emulsifier containing water.
Chinese cabbage (Brassica pekinensis) leaf disks infected with all instars of the green peach aphid (Myzus persicae), are sprayed with a preparation of the active ingredient of the desired concentration.
(§3) After 5 days mortality in % is determined. 100% means all aphids have been killed and 0% means none of the aphids have been killed.

[2] = test system: larvae of the southern green stink bug (Nezara viridula); test: Nezara viridula spray test; conditions: in Hordeum vulgare, 96 h
Procedure, shortened: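 Barley plants infested with Nezara viridula larvae were sprayed with compound in acetone/dimethylformamide, diluted in water containing 1000 ppm alkylarylpolyglycol ether emulsifier. Mortality (%) was scored after 4 days; 100% means all stink bugs killed.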

[3] = test system: fall armyworm larvae (Spodoptera frugiperda); test: Spodoptera frugiperda spray test (maize leaf sections); conditions: 168 h
Procedure, shortened: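 Maize leaf sections were sprayed with compound formulated in acetone/DMF and diluted in water containing 1000 ppm emulsifier. Once dry, sections were infested with fall armyworm larvae. Mortality (%) was scored after 7 days.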

[4] = test system: larvae of the banded cucumber beetle (Diabrotica balteata); test: Diabrotica balteata spray test; conditions: 168 h, 100 g/ha (=32 μg/well), after 7 days, wheat seeds, read-out: efficacy (seedlings grown up)
Procedure, shortened: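 Germinated wheat seedlings (5 per well, agar plates) sprayed with compound in acetone/DMF diluted in water with 1000 ppm emulsifier, then infested with 10-20 larvae per unit. Efficacy scored after 7 days as % seedling growth relative to untreated, uninfested control (100% = normal growth, 0% = none).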

[5] = test system: brown planthopper (Nilaparvata lugens); test: Nilaparvata lugens spray test; conditions: in Oryza sativa, 96 h
Description: Solvent: 78.0 parts by weight of acetone • • 1.5 parts by weight of dimethylformamide
as §1, §2
Rice plants (Oryza sativa) are sprayed with a preparation of the active ingredient of the desired concentration and the plants are infested with the brown planthopper (Nilaparvata lugens).
After 4 days mortality in % is determined. 100% means all planthoppers have been killed and 0% means none of the planthoppers have been killed.

[6] = test system: adult cat fleas (Ctenocephalides felis); test: Ctenocephalides felis in-vitro contact test, adult cat flea; conditions: 5 μg/cm^2 (=500 g/ha), after 48 hours, read-out: efficacy (fleas dead or moribund)
Description: 9 mg compound is solved in 1 mL acetone and diluted with acetone to the desired concentration. 250 μL of the test solution is filled in 25 mL glass test tubes and homogeneously distributed on the inner walls by rotation and tilting on a shaking device (2 h at 30 rpm). With a compound concentration of 900 ppm, an inner surface of 44.7 cm^2 and a homogeneous distribution, a dose of 5 μg/cm^2 is achieved.
After the solvent has evaporated, each test tube is filled with 5-10 adult cat fleas (Ctenocephalides felis), closed with a perforated lid and incubated in a lying position at room temperature and relative humidity. After 48 hours efficacy is determined. The fleas are patted on the ground of the tubes and are incubated on a heating plate at 45-50° C. for at most 5 minutes. Immotile or uncoordinated moving fleas, which are not able to escape the heat by climbing upwards, are marked as dead or moribund.
An efficacy of 100% means all fleas are dead or moribund; 0% means no fleas are dead or moribund.

[7] = test system: adult brown dog ticks (Rhipicephalus sanguineus); test: Rhipicephalus sanguineus in-vitro contact test with adult brown dog ticks; conditions: after 48 hours, read-out: efficacy (ticks dead or moribund); for pest or weed control at 1 µg/cm2, 100 g/ha: 1 μg/cm^2 (=100 g/ha); for pest or weed control at 5 µg/cm2, 500 g/ha: 5 μg/cm^2 (=500 g/ha)
Procedure, shortened: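 Compound in acetone coated onto glass tube inner walls at 900 ppm, giving 5 μg/cm^2. Adult ticks (5-10 per tube) held at room temperature for 48 h, then placed on a 45-50° C. heating plate for up to 5 min. Ticks unable to climb away counted dead or moribund; efficacy given as % dead/moribund.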

[8] = test system: cattle tick larvae (Rhipicephalus microplus), strain Parkhurst, resistant against synthetic pyrethroids; test: Rhipicephalus (Boophilus) microplus in-vitro contact test, larval cattle tick; conditions: 5 μg/cm^2 (=500 g/ha), after 48 hours, read-out: efficacy (larvae dead or moribund)
Procedure, shortened: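 Acetone solutions of compound were coated on glass tube walls (900 ppm giving 5 μg/cm^2) and dried. 20–50 pyrethroid-resistant Parkhurst larvae were held per tube at 27° C and 85% relative humidity; after 48 h negative geotaxis scored efficacy as percent larvae dead or moribund.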

[9] = test system: caterpillars of the fall army worm (Spodoptera frugiperda); test: Spodoptera frugiperda spray test (cotton leaves); conditions: 168 h
Description: Solvent: 14 parts by weight of dimethylformamide
Emulsifier: alkylaryl polyglycol ether
as §2, with “solvent” for “solvents”, “water. Ammonium salt and/or penetration enhancer in a dosage of 1000 ppm are added to the desired concentration if necessary.” for “water.”
Cotton leaves (Gossypium hirsutum) are treated by being sprayed with the preparation of the active compound of the desired concentration and are infested with caterpillars of the fall army worm (Spodoptera frugiperda).
After 7 days mortality in % is determined. 100% means all the caterpillars have been killed and 0% means none of the caterpillars have been killed.

[10] = test system: adult engorged female ticks (Rhipicephalus microplus); test: Rhipicephalus (Boophilus) microplus injection test; conditions: 168 h, egg deposition after 7 days, read-out: efficacy (infertile eggs); for pest or weed control at 0.004 mg: 4 μg/animal
Procedure, shortened: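 Compound was dissolved in DMSO at 10 mg per 0.5 mL and diluted with DMSO to the test concentration. Five engorged adult females received a 1 μL abdominal injection and were kept in a climate chamber. After 7 days, fertile egg deposition was scored, with unclear eggs held until hatching at about 42 days; 100% efficacy means all eggs were infertile.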

[11] = test system: green peach aphid (Myzus persicae); test: Myzus persicae oral test; conditions: 120 h
Description: Solvent: 100 parts by weight acetone
To produce a suitable preparation of active compound, 1 part by weight of active compound is mixed with the stated amount of solvent, and the concentrate is diluted with water to the desired concentration.
50 μL compound solution is filled in microtiter plates and 150 μL IPL41 insect medium (33%+15% sugar) is added to obtain a total volume of 200 μL per well. Afterwards the plates are sealed with parafilm through which a mixed population of the green peach aphid (Myzus persicae) can suck on the compound preparation.
as §3

[12] = test system: adult unfed cat fleas (Ctenocephalides felis); test: Ctenocephalides felis oral test; conditions: 48 h, 100 ppm in cattle blood, after 2 days
Procedure, shortened: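 About 20 adult unfed Ctenocephalides felis fed through parafilm on cattle blood dosed with compound (DMSO stock diluted in blood), blood chamber at 37°C, fleas at room temperature. Mortality (%) scored after 2 days; 100% means all fleas killed.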

SMILES	mortality at 100 g/ha [1] [%]	mortality at 500 g/ha [2] [%]	mortality at 100 g/ha [3] [%]	pest or weed control at 32 µg/disc, 100 g/ha [4] [%]	mortality at 500 g/ha [5] [%]	pest or weed control at 5 µg/cm2 [6] [%]	pest or weed control at 1 µg/cm2, 100 g/ha [7] [%]	pest or weed control at 5 µg/cm2, 500 g/ha [7] [%]	pest or weed control at 5 µg/cm2 [8] [%]	mortality at 20 ppm [9] [%]	pest or weed control at 0.004 mg [10] [%]	mortality at 4 ppm [11] [%]	mortality at 100 g/ha [2] [%]	mortality at 100 ppm [12] [%]	pest or weed control at 0.02 mg ([10]; 20 μg/animal) [%]	mortality at 500 g/ha [3] [%]	mortality at 500 g/ha ([1]; 500 g/ha) [%]
CNc1nc([C@H](C)NC(=O)c2cc(Cl)cc(S(=O)(=O)C(F)F)c2)n(-c2ncccn2)n1 [I-202]	90	100	100	100	100	–	–	–	–	–	–	–	–	–	–	–	–
C[C@H](NC(=O)c1cc(C(F)(F)F)cc(C(F)(F)F)c1)c1nc(N)nn1-c1ncccn1 [I-134, N-[(1S)-1-(5-amino-2-pyrimidin-2-yl-1,2,4-triazol-3-yl)ethyl]-3,5-bis(trifluoromethyl) benzamide]	100	100	100	100	100	100	100	100	100	–	–	–	–	–	–	–	–
CNc1nc([C@H](C)NC(=O)c2cc(Br)cc(Br)c2)n(-c2ccc(C#N)cn2)n1 [I-143]	–	100	100	100	–	–	–	–	–	100	–	–	–	–	–	–	–
CNc1nc([C@H](C)NC(=O)c2cc(Br)cc(OC(F)(F)F)c2)n(-c2ccc(C#N)cn2)n1 [I-142]	–	100	100	100	–	–	–	–	–	100	–	–	–	–	–	–	–
CC(NC(=O)c1cc(C(F)(F)F)cc(C(F)(F)F)c1)c1nc(N)nn1-c1ncccn1 (stereo not drawn) [I-007]	90	–	100	100	–	100	100	100	100	–	100	100	100	100	–	–	–
C[C@H](NC(=O)c1cc(Cl)cc(S(C)(=O)=O)c1)c1nc(N(C)C)nn1-c1ncc(Cl)cn1 [I-179]	90	100	100	100	100	–	–	–	–	–	–	–	–	–	–	–	–
C[C@H](NC(=O)c1cc(OC(F)(F)F)cc(S(=O)(=O)C2CC2)c1)c1nc(N)nn1-c1ncccn1 [I-187]	90	100	–	100	100	–	–	–	–	–	–	–	–	–	–	–	–
CC(NC(=O)c1cc(Cl)cc(C(F)(F)F)c1)c1nc(CS(C)(=O)=O)nn1-c1ccc(Cl)cn1 (stereo not drawn) [I-029]	–	–	100	–	–	–	–	–	–	100	100	–	–	100	100	100	–
C[C@H](NC(=O)c1cc(Cl)cc(C(C)(C)C#N)c1)c1nc(N(C)C)nn1-c1ncc(Cl)cn1 [I-178]	90	100	100	100	100	–	–	–	–	–	–	–	–	–	–	–	–
CNc1nc([C@H](C)NC(=O)c2cc(C(F)(F)F)cc(C(F)(F)F)c2)n(-c2ncccn2)n1 [I-127, N-[(1S)-1-[5-(methylamino)-2-pyrimidin-2-yl-1,2,4-triazol-3-yl]ethyl]-3,5-bis(trifluoromethyl)benzamide]	90	100	100	100	90	100	100	100	100	–	–	–	–	–	–	–	–
CC(NC(=O)c1cc(Cl)cc(OC(F)(F)F)c1)c1nc(N)nn1-c1ncccn1 (stereo not drawn) [I-090]	90	–	100	100	–	90	–	–	90	–	100	–	–	100	–	–	–
CC(NC(=O)c1cc(C(F)(F)F)cc(C(F)(F)F)c1)c1nc(N(C)C)nn1-c1ncc(Cl)cn1 (stereo not drawn) [I-165]	90	100	100	100	100	–	–	–	–	–	–	–	–	–	–	–	–
C[C@H](NC(=O)c1cc(Cl)cc(S(C)(=O)=O)c1)c1nc(N)nn1-c1ccc(C#N)cn1 [I-148, N-[(1S)-1-[5-amino-2-(5-cyano-2-pyridyl)-1,2,4-triazol-3-yl]ethyl]-3-chloro-5-methylsulfonyl-benzamide]	90	100	100	100	100	–	–	–	90	–	–	–	–	–	–	–	–
CC(NC(=O)c1cc(Br)cc(OC(F)(F)F)c1)c1nc(N)nn1-c1ncccn1 (stereo not drawn) [I-095]	–	90	–	100	–	90	–	–	100	–	–	100	–	–	–	–	90
CC(NC(=O)c1cc(OC(F)(F)F)cc(S(C)(=O)=O)c1)c1nc(N(C)C)nn1-c1ncc(Cl)cn1 (stereo not drawn) [I-192]	90	100	100	100	100	–	–	–	–	–	–	–	–	–	–	–	–
CON(C)c1nc([C@H](C)NC(=O)c2cc(Cl)cc(C(C)(C)C#N)c2)n(-c2ncccn2)n1 [I-163]	100	100	100	100	100	–	–	–	–	–	–	–	–	–	–	–	–
